# Patent US20230364091A1, “COMPOSITIONS AND METHODS FOR TREATING CANCER” (The Regents of the University of California, priority 2020, published 2023)
# How the values were obtained:
# [1] = Brain penetration in non-tumor bearing mice; type: in vivo; settings: mouse, brain and plasma, unbound ratio of drug in brain to plasma
# Description: Disclosed in table 5 Brain to plasma percentages and unbound ratios of drugs in brain to plasma of indicated drugs in non-tumor bearing mice
# [2] = system: PC-9 cells (EGFR exon 19 deletion); experiment: Cellular IC50, Cell Titer Glo viability, PC-9; type: cell-based; settings: Homo sapiens, 72 hours
# Description: (§1) PC-9 cells were purchased from Sigma, and HCC827 cells were purchased from ATCC. Each cell line was maintained at ≤passage 10 at 37° C. in a humidified incubator with 5% CO2. Cells were plated in 96-well optical bottom plates (Corning #3903; Corning, NY) at a cell density of 5,000 cells/well, allowed to adhere for minimally 16 hours, and subsequently treated with the test compounds using an 11-point serial dilution (1:3) in duplicate using an HP D300 digital 4 dispenser (Tecan, Morrisville, NC). 72 hours after addition of the test compounds, Cell Titer Glo reagent (Promega, Madison, WI) was added to the plate according to manufacturer's protocol and luminescence measured using a Spectramax M5 (Molecular Devices, San Jose, CA). IC50s were calculated using the 4-parameter variable slope curve fit using the equation below where, Y and X are variables plotted, Top and Bottom are plateaus in the units of the Y axis, Log IC50 is the Log transformation of the IC50 value and HillSlope is the Hill Slope for the curve and describes curve steepness (GraphPad Prism, version 6.07, GraphPad Software, Inc.). Y=Bottom+(Top−Bottom)/(1+10((Log IC50−X)*HillSlope)))
# [3] = system: HCC827 cells (EGFR exon 19 deletion); experiment: Cellular IC50, Cell Titer Glo viability, HCC827; type: cell-based; settings: Homo sapiens, 72 hours
# Description: as §1
Kp uu [1],IC50 [2],IC50 [3],SMILES
0.341,,,"Fc1c(Br)cccc1Nc1ncnc2cc3c(cc12)OC(CN1CCOCC1)CO3 (racemic) [JGK063, (±)-N-(3-Bromo-2-fluorophenyl)-7-[(morpholin-4-yl)methyl]-7,8-dihydro[1,4]dioxino[2,3-g]quinazolin-4-amine]"
1.18,,,"CN(C)CC1COc2cc3ncnc(Nc4cccc(Br)c4F)c3cc2O1 (racemic) [JGK066, (±)-N-(3-Bromo-2-fluorophenyl)-7-[(dimethylamino)methyl]-7,8-dihydro[1,4]dioxino[2,3-g]quinazolin-4-amine]"
1.18,,,"CN1CCN(CC2COc3cc4ncnc(Nc5cccc(Br)c5F)c4cc3O2)CC1 (racemic) [JGK068, (±)-N-(3-Bromo-2-fluorophenyl)-7-[(4-methylpiperazin-1-yl)methyl]-7,8-dihydro[1,4]dioxino[2,3-g]quinazolin-4-amine]"
,21.7 nM,12.7 nM,"Fc1c(Br)cccc1Nc1ncnc2cc3c(cc12)O[C@@H](CN1CCOCC1)CO3 [JCN063S, (S)—N-(3-bromo-2-fluorophenyl)-7-(morpholinomethyl)-7,8-dihydro-[1,4]dioxino[2,3-g]quinazolin-4-amine]"
,53.9 nM,49.5 nM,"Fc1c(Br)cccc1Nc1ncnc2cc3c(cc12)O[C@@H](CN1CCCCC1)CO3 [JCN065S, (S)—N-(3-bromo-2-fluorophenyl)-7-(piperidin-1-ylmethyl)-7,8-dihydro-[1,4]dioxino[2,3-g]quinazolin-4-amine]"
,36.2 nM,25.7 nM,"Fc1c(Br)cccc1Nc1ncnc2cc3c(cc12)O[C@@H](CN1CCCC1)CO3 [JCN067S, (S)—N-(3-bromo-2-fluorophenyl)-7-(pyrrolidin-1-ylmethyl)-7,8-dihydro-[1,4]dioxino[2,3-g]quinazolin-4-amine]"
1.18,,,"CN1CCN(C[C@H]2COc3cc4ncnc(Nc5cccc(Br)c5F)c4cc3O2)CC1 [JGK068S, (7S)—N-(3-Bromo-2-fluorophenyl)-7-[(4-methylpiperazin-1-yl)methyl]-7,8-dihydro[1,4]dioxino [2,3-g]quinazolin-4-amine]"
0.798,,,"Fc1c(Br)cccc1Nc1ncnc2cc3c(cc12)O[C@@H](CN1CCNCC1)CO3 [JGK083S, (7S)—N-(3-Bromo-2-fluorophenyl)-7-[(piperazin-1-yl)methyl]-7,8-dihydro[1,4]dioxino [2,3-g]quinazolin-4-amine]"
